For series [1] the following is noted: cited from earlier work.
For series [2], the system named is motor coordination in rats. The series can be described thus: Rotarod, ER profile vs IR profile of brivaracetam in rats (Example 16). The class given is in vivo. On the procedure:
The primary objective of this study is to compare the CNS side effects of brivaracetam when delivered as a continuous infusion to rats to simulate an extended release (ER) plasma profile or as a bolus to simulate an immediate release (IR) plasma profile. It is hypothesized that reducing the rate of rise of plasma concentrations with the ER profile compared to the IR profile results in reduced CNS impairment. CNS side effects are measured as an impairment of motor coordination in rodents using the rotarod. The rotarod (Ugo Basile, Italy) is a device that allows for quantitative measurement of motor coordination in rodents. Animals experiencing CNS side effects such as dizziness would fall off the rotarod faster than normal animals.
An acceleration protocol is used for training and test sessions, wherein the rotarod is accelerated from 0-40 rpm over a 5 minute session. All rats are then surgically implanted subcutaneously with programmable pumps (iPRECIO, Durect Corporation, Cupertino, Calif.), per the manufacturer's instructions, under anesthesia and using aseptic techniques.
Three days following pump implantation surgery, all rats are tested on the rotarod to obtain baseline performance values. […]
Animals that stay on the rotarod for the entire session are assigned a run-time of 300 seconds. The time that each animal stays on the rotarod prior to falling is automatically recorded. […]
(In general: In the rotarod test animals must keep their balance on a rotating rod.)

Series [3] can be described thus: Brivaracetam plasma pharmacokinetics, ER infusion vs IP bolus in rats (Example 16). The following applies: PK satellite rats. The class given is in vivo. On the procedure:
To reproduce the plasma profile of ER brivaracetam (ER profile, group 2), rats are administered brivaracetam as a continuous infusion into the intraperitoneal (IP) space. […] Control animals (group 1) are infused with vehicle using the same infusion protocol. […] Control animals (group 3) were implanted with pumps containing vehicle and were given an IP bolus of vehicle.
In order to fully elucidate the plasma concentration-time profile of brivaracetam administered by the ER and IR protocols, two groups of PK satellite rats are administered brivaracetam using identical protocols to groups 2 and 4 above to reproduce the ER and IR profiles, respectively. Blood is collected at varying time points and the plasma brivaracetam concentrations are determined. No rotarod testing is performed on the PK satellite rats.

Structures are written as SMILES.

In the case of `CCC[C@@H]1CC(=O)N([C@@H](CC)C(N)=O)C1` [brivaracetam, (2S)-2-[(4R)-2-oxo-4-propylpyrrolidin-1-yl]butanamide], the “elimination / plasma / pharmacokinetic half-life” value in series [1] (human) is 7 to 8 h. In addition, the “fraction of dose unchanged in urine” value in series [1] (in vivo) is 5-8%. Further, the Tmax result in series [1] (oral dosing, human) is “approximately 2 hours”. In addition, the “change from baseline in time on the rotarod vs vehicle” value in series [2] (ER profile) was “not different between brivaracetam treated and vehicle animals”. The “change in time on the rotarod vs vehicle” value in series [2] (IR profile, IP bolus) was “greater reduction in time on the rotarod than matched vehicle controls”. Besides, in series [3], the “rate of rise of plasma concentration, ER profile as % of IR profile” value is recorded as under 10%.

These data come from US10987324B2, “Methods and compositions for the treatment of seizure-related disorders” (Adamas Pharmaceuticals, Inc., priority 2015, dated 2021).
